How the values were obtained:
[1] = tested on: infiltration of the lung tissue; assay: Morphometric peribronchial and perivascular infiltration of lung tissue, ovalbumin asthma model; format: in vivo, mice of the Balb/C line; settings: age group not given
Excerpt: Female, non-pathogenic mice of the Balb/C line (“Pushchtino” laboratory animal breeders) were kept under conditions of an SPF-vivarium at a constant temperature, 12-hour day/night cycle, and received sterile feed and water ad libitum. In two series of experiments, mice from 6-8 weeks and 18-20 weeks of age were used at the beginning of the experiment, respectively. The animals were immunized twice at 5-day intervals with an ovalbumin solution (Sigma) in an adjuvant based on ammonium sulfate at a dosage of 8 μg per mouse. SCV-07 was administered intra-abdominally in a volume of 200 μL at a dosage of 0.1 or 1.0 μg/kg in PBS once a day from 6 through 11 days after the first immunization. The control group received physiological saline on the same days. Each group comprised 6 to 10 animals. On the 12th, 16th and 20th days after the first immunization, the animals were then placed in a hermetic box, in which an aerosol of 1% ovalbumin solution (OvA) in PBS was generated with an ultrasonic nebulizer LD-207U (Little Doctor) for 1 minute with continuous mixing of air. The duration of exposure of the animals to the aerosol was 15 minutes. Analysis of the severity of experimental allergic asthma was carried out 24 hours after the last aerosol exposure. […] Sections of […] were prepared. The sections were stained with hematoxylin-eosin to evaluate the intensity of cell infiltration and Schiff-iodic acid to count the number of goblet cells. Quantitative evaluation of the peribronchial and perivascular infiltration was accomplished morphometrically with the Scion Image program package. Three bronchi and three vessels were analyzed on sections of the lungs from each animal. The area of the infiltration was calculated as the difference between the area of the tissue containing bronchi or vessels and the infiltration surrounding it, and the area of the vessel or bronchus itself. The indices of infiltration were calculated as the ratio of the area of the infiltration to the area of the vessel or bronchus.

interferon-γ = assay: ConA-induced IFN-γ production by splenocytes after intra-abdominal SCV-07; format: in vivo, mice; settings: 1 μg/kg, five daily intra-abdominal injections; ConA 5 μg/mL
Procedure: SCV-07 was administered to intact wild mice in the form of five daily intra-abdominal injections at dosages of 0.1 and 1.0 μg/kg of body weight. After this, isolation of spleen cells was carried out the cytokine synthesis was induced in the culture by stimulating the cells with concanavalin A at a dosage of 5 μg/mL. The levels of the synthesized cytokines were determined by quantitative immunoenzyme analysis. […] The changes on ConA-induced production of two other [sic] cytokines—IFN-γ and IL-4, as is apparent from FIG. 1, were reciprocal in nature.

BAL cells = assay: BAL white blood cells and differentials, guinea pig model; format: in vivo, Dunkin-Hartley guinea pigs
Procedure: Animals were sensitized on day 0 ip with 50 mg/kg OVA. On Days 17, 18, 19, and 20, animals received an ip injection between 8 and 10 am with PBS, SCV-07 at 1 ug/kg, or SCV-07 at 10 ug/kg (Peptide treatment). Between 8 and 10 a.m. on Day 21, animals were administered peptide 2 hours before OVA or saline (NSS) aerosol challenge. 30 min before OVA or NSS aerosol challenge each animal was injected ip with an antihistamine (6.1 mg/kg pyrilamine maleate) to prevent death due to the anaphylactic response that accompanies aerosol OVA challenge. Animals were exposed to aerosol in pairs with either 1% OVA solution or NSS for 5 min in a plexiglass chamber (22×22×29 cm) using a DeVilbiss Model 35B Ultrasonic Nebulizer. Animals were observed during the total 5 min aerosolization and comments recorded. Within 22-24 hours after challenge, animals were euthanized, bled by cardiac puncture, lavaged and lung lobes removed for measurement of cellular infiltration. At the time of OVA or NSS challenge and euthanasia, animal weights ranged from approximately 350-550 g, with the average weight approximately 420 g. This experimental protocol is similar to that used in previously published studies (Regal and Fraser, 1996; Regal et al., 2000). Animals were euthanized with pentobarbital (100-200 mg/kg), bled by cardiac puncture, and lavaged with room temperature PBS. For bronchoalveolar lavage (BAL), the trachea was cannulated and 4 volumes of PBS were introduced into the tracheal cannula and gently withdrawn. Total lavage volume was 60 ml/kg. The BAL was centrifuged to sediment the cells, and the BAL cell pellet re-suspended in 1.0 ml PBS for determination of the total number of white blood cells (WBC) recovered in the BAL of each animal. The BAL supernatant was frozen at −70 C for determination of total protein recovered in the BAL supernatant using the method of Lowry et al. (1951). Total white blood cells in BAL were counted by standard methods in a hemacytometer using Turk's solution. Differential counts were obtained from cytospin preparations of BAL cells (3×10^4 cells) stained with a modified Wrights' stain (Diff Quik, American Scientific Products, McGraw Park, Ill.). Four hundred cells were counted and identified as eosinophils, neutrophils, or mononuclear cells. […] EPO activity from the homogenized lung after lavage was expressed as total OD/min from the left caudal lobe. MPO activity from the homogenized lung after lavage was expressed as total units of enzyme activity from the right caudal lobe. […] OD412 of the BAL supernatant was also determined to estimate the number of RBCS that were lysed during the lavage procedure and prior to re-suspension of the cells for counting. […]

[2] = tested on: 5-FU-immune-suppressed animals; settings: in vivo; cited from earlier work

N[C@H](CCC(=O)N[C@@H](Cc1c[nH]c2ccccc12)C(=O)O)C(=O)O [SCV-07, γ-D-glutamyl-L-tryptophan]
Index of peribronchial infiltration, conventional units ([1]; 0.1 μg/kg): 0.39 ± 0.19 conventional units | Index of perivascular infiltration, conventional units ([1]; 0.1 μg/kg): 1.67 ± 1.08 conventional units | Index of peribronchial infiltration, conventional units ([1]; 1 μg/kg): 0.35 ± 0.14 conventional units | Index of perivascular infiltration, conventional units ([1]; 1 μg/kg): 1.48 ± 1.02 conventional units | Change in ConA-induced IFN-γ production by the splenocytes (interferon-γ): almost five-fold increase | Change in BAL neutrophils from NSS to OVA (BAL cells; 1 ug/kg, ANOVA contrast vs PBS treatment): differed | Composition of cells in the BAL of control animals challenged with NSS (BAL cells; NSS aerosol, 1 or 10 ug/kg): did not significantly affect | Total eosinophils in the BAL (BAL cells; OVA aerosol challenge): did not change | % eosinophils in the BAL (BAL cells; OVA aerosol challenge, not statistically significant): tended to decrease | Effect on 5-FU-immune-suppressed animals [2]: strong immunostimulatory effect

Source: patent US20100204295A1, “TREATMENT OF ALLERGIC DISEASE WITH IMMUNOMODULATOR COMPOUNDS” (SCICLONE PHARMACEUTICALS, INC., priority 2007, published 2010)
